Test results as given in patent US20180049995A1, “HIF-2-ALPHA INHIBITOR POLYMORPHS” (PELOTON THERAPEUTICS, INC., priority 2015, published 2018).
In brackets after ≈: the same amount, converted by molar mass. Like-named read-outs stand apart in the source and are kept apart here.

Tests used:
Type in all cases: physicochemical
[1] = Aqueous solubility (24 h mixing, filtrate by HPLC); details: thermodynamic from solid
Experimental: The aqueous solubility of several lots of Forms A and B were measured. […] The sample was filtered using a syringe filter and the filtrate was analyzed by HPLC to determine the solubility. The remaining solid was analysis by XRPD to determine its form and crystallinity. Solubility data for micronized materials was also collected. As noted in Table 3, slight variations in aqueous solubility were noted, particularly for the micronized samples.

[2] = 7-Day stability study (XRPD and HPLC after storage)
Experimental: The stability of Forms A and B were measured following storage for 7-days at ambient, 40° C./75% RH and 80° C. About 15 mg of Forms A and B were individually placed in each of 3 vials and stored uncapped for 7 days under the following conditions; ambient, 40° C./75% RH, 80° C. Following the 7 days, XRPD analysis was performed on each sample to determine its form and crystallinity and HPLC analysis was conducted to determine the sample purity.

[3] = Solubility screen for Form A in organic solvents
Experimental: A solubility screen for Form A was conducted in 24 solvents. About 5 mg of Form A was placed in each of 24 vials and 5 volume aliquots of the appropriate solvent systems listed in Table 1 were added to the appropriate vial. Between each addition, the mixture was checked for dissolution by visual inspection, and if no dissolution was apparent, the mixture was heated to ca. 40° C. and checked again. This procedure was continued until dissolution was observed or until 100 volumes of solvent had been added.
Form A appeared to be highly soluble (above ˜100 mg/mL) in a number of solvents, […] diisopropyl ether, heptane and toluene. These solvents were identified as possible anti-solvents for the primary polymorph screen. Additional solvent/water mixtures suitable for freeze drying were tested.

[4] = Competitive slurries of Form A and Form B (XRPD)
Experimental: Slurry experiments were performed at ambient, 40° C. and 60° C. temperatures using 2-propanol, tert-butyl methyl ether, toluene and ethanol as solvents.
(§1) Saturated solutions of 2-propanol, tert-butylmethyl ether, toluene and ethanol were prepared at ambient temperature. ca. 25 mg of Form A and Form B were weighed into a vial to create 50 mg 50:50 wt/wt mixture of the two batches. The appropriate solvent was added to the mixture and the resulting slurry was stirred for 48 h at ambient temperature, before the solid was analyzed by XRPD.
as §1, with “40° C.” for “ambient temperature.”, “40° C.,” for “ambient temperature,”
as §1, with “2-propanol,” for “2-propanol, tert-butylmethyl ether,”, “60° C.” for “ambient temperature.”, “60° C.,” for “ambient temperature,”

`CS(=O)(=O)c1ccc(Oc2cc(F)cc(C#N)c2)c2c1[C@H](O)C(F)(F)C2` [Form A, (S)-3-((2,2-difluoro-1-hydroxy-7-(methylsulfonyl)-2,3-dihydro-1H-inden-4-yl)oxy)-5-fluorobenzonitrile] gave a solubility at 24 h ([1]; fassif, Fasted State Simulated Small Intestinal Fluid, read-out: Aqueous Solubility FaSSIF) of 0.063 mg/mL (≈ 0.164 mM), a solubility at 24 h ([1]; fessif, Fed State Simulated Small Intestinal Fluid, read-out: Aqueous Solubility FeSSIF) of 0.086 mg/mL (≈ 0.224 mM) and a solubility at 24 h ([1]; pH 1.2, simulated gastric fluid, pH 1.2, read-out: Aqueous Solubility pH 1.2) of 0.029 mg/mL (≈ 0.0756 mM). For the same compound, the solubility at 24 h ([1]; pH 6.5, aqueous buffer, pH 6.5, read-out: Aqueous Solubility pH 6.5) was 0.025 mg/mL (≈ 0.0652 mM), the solubility at 24 h ([1]; pH 7.4, aqueous buffer, pH 7.4, read-out: Aqueous Solubility pH 7.4) was 0.026 mg/mL (≈ 0.0678 mM) and the Crystallinity after storage ([2]; 7 days at 80° C.) was “appeared to lose crystallinity”. For the same compound, the “Form change by XRPD after storage” value ([2]; 7 days uncapped, ambient, 40° C./75% RH, 80° C.) was “no signs of form change”, the “Purity by HPLC after storage” value ([2]; 7 days, over all three conditions (ambient, 40° C./75% RH, 80° C.)) was 99.0% and the solubility ([3]; 40 °C, organic solvent or mixture, thermodynamic from solid, 1,4-Dioxane, solubility observed at 40° C., read-out: Solubility) was greater than 200 mg/mL. It also gave a solubility ([3]; 40 °C, organic solvent or mixture, thermodynamic from solid, Acetonitrile, solubility observed at 40° C., read-out: Solubility) greater than 200 mg/mL, a solubility ([3]; 40 °C, organic solvent or mixture, thermodynamic from solid, Diisopropyl ether, solubility observed at 40° C., read-out: Solubility) greater than 2 mg/mL and a solubility ([3]; 40 °C, organic solvent or mixture, thermodynamic from solid, Methyl isobutyl ketone, solubility observed at 40° C., read-out: Solubility) of 160 mg/mL (≈ 417 mM). The Solubility in words ([3]; THF:Water (50%), separation into API-saturated THF layer and API-free aqueous layer observed) was “Sufficient solubility”, the solubility ([3]; aqueous with cosolvent or surfactant or cyclodextrin, thermodynamic from solid, Acetone: Water (60%), read-out: Solubility) was less than 2 mg/mL and the solubility ([3]; aqueous with cosolvent or surfactant or cyclodextrin, thermodynamic from solid, Ethanol: Water (50%), read-out: Solubility) was less than 2 mg/mL. It also gave a solubility ([3]; aqueous with cosolvent or surfactant or cyclodextrin, thermodynamic from solid, Methanol: Water (50%), read-out: Solubility) of less than 2 mg/mL, a solubility ([3]; aqueous with cosolvent or surfactant or cyclodextrin, thermodynamic from solid, THF: Water (50%), read-out: Solubility) of 100 mg/mL (≈ 261 mM) and a solubility ([3]; organic solvent or mixture, thermodynamic from solid, 2-Propanol, read-out: Solubility) of 9 mg/mL (≈ 23.5 mM). For the same compound, the solubility ([3]; organic solvent or mixture, thermodynamic from solid, Acetone: Water (5%), read-out: Solubility) was greater than 200 mg/mL, the solubility ([3]; organic solvent or mixture, thermodynamic from solid, Acetone: Water (20%), read-out: Solubility) was greater than 200 mg/mL and the solubility ([3]; organic solvent or mixture, thermodynamic from solid, Acetone, read-out: Solubility) was greater than 200 mg/mL. For the same compound, the solubility ([3]; organic solvent or mixture, thermodynamic from solid, Acetonitrile: Water (10%), read-out: Solubility) was greater than 200 mg/mL, the solubility ([3]; organic solvent or mixture, thermodynamic from solid, Dichloromethane, read-out: Solubility) was 80 mg/mL (≈ 209 mM) and the solubility ([3]; organic solvent or mixture, thermodynamic from solid, Dimethylformamide, read-out: Solubility) was greater than 200 mg/mL. The solubility ([3]; organic solvent or mixture, thermodynamic from solid, Dimethylsulfoxide, read-out: Solubility) was 160 mg/mL (≈ 417 mM), the solubility ([3]; organic solvent or mixture, thermodynamic from solid, Ethanol, read-out: Solubility) was 60 mg/mL (≈ 157 mM) and the solubility ([3]; organic solvent or mixture, thermodynamic from solid, Ethyl acetate, read-out: Solubility) was 160 mg/mL (≈ 417 mM). The solubility ([3]; organic solvent or mixture, thermodynamic from solid, Heptane, read-out: Solubility) was less than 2 mg/mL, the solubility ([3]; organic solvent or mixture, thermodynamic from solid, Isopropyl acetate, read-out: Solubility) was 90 mg/mL (≈ 235 mM) and the solubility ([3]; organic solvent or mixture, thermodynamic from solid, Methanol, read-out: Solubility) was 90 mg/mL (≈ 235 mM). The solubility ([3]; organic solvent or mixture, thermodynamic from solid, Methyl acetate, read-out: Solubility) was greater than 200 mg/mL, the solubility ([3]; organic solvent or mixture, thermodynamic from solid, Methylethyl ketone, read-out: Solubility) was greater than 200 mg/mL and the solubility ([3]; organic solvent or mixture, thermodynamic from solid, N-Methyl-2-pyrrolidone, read-out: Solubility) was 130 mg/mL (≈ 339 mM). For the same compound, the solubility ([3]; organic solvent or mixture, thermodynamic from solid, Tetrahydrofuran, read-out: Solubility) was greater than 200 mg/mL, the solubility ([3]; organic solvent or mixture, thermodynamic from solid, Toluene, read-out: Solubility) was greater than 2 mg/mL and the solubility ([3]; organic solvent or mixture, thermodynamic from solid, in a number of solvents, read-out: Solubility (highly soluble)) was greater than 100 mg/mL. The solubility ([3]; organic solvent or mixture, thermodynamic from solid, tert-Butylmethyl ether, read-out: Solubility) was 35 mg/mL (≈ 91.3 mM), the Solubility in words ([3]; water (hydrophobic behavior observed), diisopropyl ether, heptane and toluene) was “insoluble” and the solubility ([3]; water, thermodynamic from solid, Water, read-out: Solubility) was less than 2 mg/mL.

With `CS(=O)(=O)c1ccc(Oc2cc(F)cc(C#N)c2)c2c1[C@H](O)C(F)(F)C2` (mixture of isomers) [50:50 wt/wt mixture, (S)-3-((2,2-difluoro-1-hydroxy-7-(methylsulfonyl)-2,3-dihydro-1H-inden-4-yl)oxy)-5-fluorobenzonitrile] the “Form by XRPD after competitive slurry” value ([4]; 2-Propanol, 40° C., 48 h) was “Form B”, the “Form by XRPD after competitive slurry” value ([4]; 2-Propanol, 60° C., 48 h, footnote: Primarily Form B) was “Mixture^a” and the “Form by XRPD after competitive slurry” value ([4]; 2-Propanol, Ambient, 48 h) was “Form B”. The “Form by XRPD after competitive slurry” value ([4]; Ethanol, 40° C., 48 h) was “Form B”, the “Form by XRPD after competitive slurry” value ([4]; Ethanol, 60° C., 48 h, footnote: primarily Form A with some Form B present) was “Mixture^b” and the “Form by XRPD after competitive slurry” value ([4]; Ethanol, Ambient, 48 h) was “Form B”. For the same compound, the “Form by XRPD after competitive slurry” value ([4]; Ethanol, Repeat 60° C., only Form B observed) was “Form B^b”, the “Form by XRPD after competitive slurry” value ([4]; TBME, 40° C., 48 h) was “Form B” and the “Form by XRPD after competitive slurry” value ([4]; TBME, Ambient, 48 h) was “Form B”. For the same compound, the “Form by XRPD after competitive slurry” value ([4]; Toluene, 40° C., 48 h) was “Form B”, the “Form by XRPD after competitive slurry” value ([4]; Toluene, 60° C., 48 h) was “Form B” and the “Form by XRPD after competitive slurry” value ([4]; Toluene, Ambient, 48 h) was “Form B”.

For `CS(=O)(=O)c1ccc(Oc2cc(F)cc(C#N)c2)c2c1[C@H](O)C(F)(F)C2` [Form B, (S)-3-((2,2-difluoro-1-hydroxy-7-(methylsulfonyl)-2,3-dihydro-1H-inden-4-yl)oxy)-5-fluorobenzonitrile], the “Thermodynamic stability of the form (conclusion of competitive slurries)” value ([4]; all solvents, ambient, 40° C. and 60° C.) was “the most thermodynamically form”, the “Purity by HPLC after storage” value ([2]; 7 days at 80° C., drop from 99.7%) was 99.3% and the Crystallinity after storage ([2]; 7 days, over the three conditions (ambient, 40° C./75% RH, 80° C.)) was “maintained crystallinity”.
